Data taken from article PMC4178217, “Quinoline 3-sulfonamides inhibit lactate dehydrogenase A and reverse aerobic glycolysis in cancer cells” (Cancer & Metabolism, 2013).
Read-outs that look alike come from different tables or passages of the source.

What was measured:
Adrenergic Receptor a1B = Adrenergic Receptor a1B (Homo sapiens, UniProt P35368); experiment: Adrenergic Receptor a1B ANT
Excerpt: (§1) ANT = antagonist (pIC50), AG = agonist (pEC50). pIC50 and pEC50 are the negative logarithms10 of IC50 and EC50, respectively. Click here for file

Adrenergic Receptor b2 = Adrenergic Receptor b2 (Homo sapiens, UniProt P07550); experiment: Adrenergic Receptor b2 AG; settings: agonist; read-out: pEC50 Adrenergic Receptor b2 AG (converted)
Sequence of Adrenergic Receptor b2 (P07550 whole entry): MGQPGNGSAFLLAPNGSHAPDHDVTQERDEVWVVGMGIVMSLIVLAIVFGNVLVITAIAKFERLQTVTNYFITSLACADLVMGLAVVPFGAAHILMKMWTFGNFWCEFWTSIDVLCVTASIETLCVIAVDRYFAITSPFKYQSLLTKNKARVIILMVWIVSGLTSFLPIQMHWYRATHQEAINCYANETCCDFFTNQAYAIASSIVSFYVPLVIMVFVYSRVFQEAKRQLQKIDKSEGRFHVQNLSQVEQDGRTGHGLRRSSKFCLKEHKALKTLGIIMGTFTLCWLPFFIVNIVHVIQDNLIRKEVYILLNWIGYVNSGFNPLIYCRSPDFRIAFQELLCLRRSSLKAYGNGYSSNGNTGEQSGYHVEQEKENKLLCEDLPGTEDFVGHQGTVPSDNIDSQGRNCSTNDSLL
Excerpt: as §1

Aurora B Kinase = Aurora B Kinase (Homo sapiens, UniProt Q96GD4); experiment: Aurora B Kinase ANT; type: biochemical; settings: antagonist; read-out: pIC50 Aurora B Kinase ANT (converted)
Sequence of Aurora B Kinase (Q96GD4 whole entry): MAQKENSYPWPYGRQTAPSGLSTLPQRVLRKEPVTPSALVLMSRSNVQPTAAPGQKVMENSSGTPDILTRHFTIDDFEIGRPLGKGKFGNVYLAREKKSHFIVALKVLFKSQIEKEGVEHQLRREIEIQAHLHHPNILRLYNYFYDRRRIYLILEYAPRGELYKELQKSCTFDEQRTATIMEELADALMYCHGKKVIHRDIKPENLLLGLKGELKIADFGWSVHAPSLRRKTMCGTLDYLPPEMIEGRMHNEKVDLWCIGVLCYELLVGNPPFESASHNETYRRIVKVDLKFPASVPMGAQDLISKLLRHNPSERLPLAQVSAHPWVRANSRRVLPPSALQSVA
Excerpt: as §1

Cyclooxygenase 2 = Cyclooxygenase 2 (Homo sapiens, UniProt P35354); experiment: Cyclooxygenase 2 ANT; type: biochemical; settings: antagonist; read-out: pIC50 Cyclooxygenase 2 ANT (converted)
Sequence of Cyclooxygenase 2 (P35354 18-604, species assumed): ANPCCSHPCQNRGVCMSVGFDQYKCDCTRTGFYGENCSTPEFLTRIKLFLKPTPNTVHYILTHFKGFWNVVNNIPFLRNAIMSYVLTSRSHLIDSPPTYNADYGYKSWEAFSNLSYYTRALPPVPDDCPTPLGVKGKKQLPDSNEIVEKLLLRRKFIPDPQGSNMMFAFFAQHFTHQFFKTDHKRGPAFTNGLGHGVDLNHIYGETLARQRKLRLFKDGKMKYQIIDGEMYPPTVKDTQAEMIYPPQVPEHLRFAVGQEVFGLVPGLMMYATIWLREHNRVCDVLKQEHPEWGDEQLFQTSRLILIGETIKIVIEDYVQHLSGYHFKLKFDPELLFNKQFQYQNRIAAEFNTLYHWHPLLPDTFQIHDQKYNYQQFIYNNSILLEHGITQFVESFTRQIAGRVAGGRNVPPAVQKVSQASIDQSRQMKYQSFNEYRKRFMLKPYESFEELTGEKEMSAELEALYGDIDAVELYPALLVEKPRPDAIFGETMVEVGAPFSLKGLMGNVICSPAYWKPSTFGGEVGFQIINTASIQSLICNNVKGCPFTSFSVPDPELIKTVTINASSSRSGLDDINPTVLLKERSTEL
Excerpt: as §1

Dopamin Receptor D2 = Dopamin Receptor D2 (Homo sapiens, UniProt P14416); experiment: Dopamin Receptor D2 AG; settings: agonist; read-out: pEC50 Dopamin Receptor D2 AG (converted)
Sequence of Dopamin Receptor D2 (P14416 whole entry): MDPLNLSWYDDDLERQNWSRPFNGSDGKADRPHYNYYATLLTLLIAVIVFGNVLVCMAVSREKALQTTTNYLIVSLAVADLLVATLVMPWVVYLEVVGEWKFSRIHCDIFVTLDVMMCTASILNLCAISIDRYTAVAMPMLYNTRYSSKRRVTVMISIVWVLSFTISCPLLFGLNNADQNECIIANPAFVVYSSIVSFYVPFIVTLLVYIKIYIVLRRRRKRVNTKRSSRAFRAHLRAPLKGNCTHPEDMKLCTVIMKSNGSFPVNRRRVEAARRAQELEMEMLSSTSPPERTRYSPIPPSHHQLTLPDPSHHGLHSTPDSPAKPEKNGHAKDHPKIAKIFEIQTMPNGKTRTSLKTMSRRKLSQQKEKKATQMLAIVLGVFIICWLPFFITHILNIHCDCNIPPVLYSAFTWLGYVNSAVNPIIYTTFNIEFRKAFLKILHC
Excerpt: as §1

[1] = target: Nicotinic Ach Receptor A1 (Homo sapiens, UniProt P02708+P07510+Q07001); experiment: Nicotinic Ach Receptor A1 AG
Excerpt: as §1

[2] = target: Norepinephrin Transporter (Homo sapiens, UniProt P23975); experiment: Norepinephrin Transporter ANT; settings: antagonist; read-out: pIC50 Norepinephrin Transporter ANT (converted)
Sequence of Norepinephrin Transporter (P23975 whole entry): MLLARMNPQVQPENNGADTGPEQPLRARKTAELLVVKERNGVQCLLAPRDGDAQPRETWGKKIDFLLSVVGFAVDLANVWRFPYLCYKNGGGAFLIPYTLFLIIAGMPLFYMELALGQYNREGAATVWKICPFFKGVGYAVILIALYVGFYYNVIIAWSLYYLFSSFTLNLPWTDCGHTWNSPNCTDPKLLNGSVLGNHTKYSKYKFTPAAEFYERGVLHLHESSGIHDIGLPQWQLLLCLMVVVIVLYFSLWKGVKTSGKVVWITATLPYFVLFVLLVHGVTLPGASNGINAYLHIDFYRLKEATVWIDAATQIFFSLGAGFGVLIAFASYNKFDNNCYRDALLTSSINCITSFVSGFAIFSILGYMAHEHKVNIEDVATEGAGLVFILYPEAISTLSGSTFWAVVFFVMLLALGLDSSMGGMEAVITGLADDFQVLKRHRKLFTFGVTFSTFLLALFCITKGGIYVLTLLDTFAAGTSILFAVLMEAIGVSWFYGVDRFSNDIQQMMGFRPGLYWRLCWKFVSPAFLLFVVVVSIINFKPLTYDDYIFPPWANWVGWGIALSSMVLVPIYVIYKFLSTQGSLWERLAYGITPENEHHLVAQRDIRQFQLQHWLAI
Excerpt: as §1

Opioid Receptor k = Opioid Receptor k (Homo sapiens, UniProt P41145); experiment: Opioid Receptor k AG; settings: agonist; read-out: pEC50 Opioid Receptor k AG (converted)
Sequence of Opioid Receptor k (P41145 whole entry): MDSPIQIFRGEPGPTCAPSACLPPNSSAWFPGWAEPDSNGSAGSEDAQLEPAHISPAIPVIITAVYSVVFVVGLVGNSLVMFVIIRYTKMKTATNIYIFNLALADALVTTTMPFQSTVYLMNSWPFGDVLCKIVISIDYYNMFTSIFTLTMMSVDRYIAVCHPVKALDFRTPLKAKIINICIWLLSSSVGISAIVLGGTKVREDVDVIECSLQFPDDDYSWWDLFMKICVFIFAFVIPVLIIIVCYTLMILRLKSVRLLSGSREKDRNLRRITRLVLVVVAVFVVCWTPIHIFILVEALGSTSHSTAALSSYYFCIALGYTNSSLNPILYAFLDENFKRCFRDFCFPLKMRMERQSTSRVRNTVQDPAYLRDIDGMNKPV
Excerpt: as §1

Opioid Receptor m = Opioid Receptor m (Homo sapiens, UniProt P35372); experiment: Opioid Receptor m AG; settings: agonist; read-out: pEC50 Opioid Receptor m AG (converted)
Sequence of Opioid Receptor m (P35372 whole entry): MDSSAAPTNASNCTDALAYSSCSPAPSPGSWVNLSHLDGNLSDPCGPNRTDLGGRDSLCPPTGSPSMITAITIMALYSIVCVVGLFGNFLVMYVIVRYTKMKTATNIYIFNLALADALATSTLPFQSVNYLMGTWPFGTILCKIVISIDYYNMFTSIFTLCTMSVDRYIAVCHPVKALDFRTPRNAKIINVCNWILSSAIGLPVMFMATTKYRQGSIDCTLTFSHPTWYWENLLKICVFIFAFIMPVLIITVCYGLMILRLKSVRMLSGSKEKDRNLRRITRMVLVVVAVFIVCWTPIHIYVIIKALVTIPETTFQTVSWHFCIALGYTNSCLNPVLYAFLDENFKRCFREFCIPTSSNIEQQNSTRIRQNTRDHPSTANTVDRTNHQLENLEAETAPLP
Excerpt: as §1

[3] = target: Phosphoinositide 3-kinase g (Homo sapiens, UniProt P48736); experiment: Phosphoinositide 3-kinase g ANT; type: biochemical; settings: antagonist; read-out: pIC50 Phosphoinositide 3-kinase g ANT (converted)
Excerpt: as §1

Potassium Channel KCNQ1 = Potassium Channel KCNQ1 (Homo sapiens, UniProt P51787); experiment: Potassium Channel KCNQ1 ANT; settings: antagonist; read-out: pIC50 Potassium Channel KCNQ1 ANT (converted)
Excerpt: as §1

Pregnane X receptor = Pregnane X receptor (Homo sapiens, UniProt O75469); experiment: Pregnane X receptor AG; settings: agonist; read-out: pEC50 Pregnane X receptor AG (converted)
Sequence of Pregnane X receptor (O75469 whole entry, species assumed): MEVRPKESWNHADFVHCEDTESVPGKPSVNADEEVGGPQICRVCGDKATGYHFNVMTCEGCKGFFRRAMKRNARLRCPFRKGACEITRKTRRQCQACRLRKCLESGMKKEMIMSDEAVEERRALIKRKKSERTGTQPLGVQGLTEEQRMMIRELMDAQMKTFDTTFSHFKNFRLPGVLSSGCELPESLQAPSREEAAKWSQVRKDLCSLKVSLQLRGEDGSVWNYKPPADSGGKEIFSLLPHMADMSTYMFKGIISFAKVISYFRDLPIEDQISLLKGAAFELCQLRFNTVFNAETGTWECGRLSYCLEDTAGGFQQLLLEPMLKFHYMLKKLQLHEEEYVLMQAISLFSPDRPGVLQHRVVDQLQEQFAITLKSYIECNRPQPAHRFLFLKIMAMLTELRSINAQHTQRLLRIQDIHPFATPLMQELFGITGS
Excerpt: as §1

Serotonin Receptor 5H1 = Serotonin Receptor 5H1 ANT; settings: antagonist
Excerpt: as §1

Serotonin Receptor 5HT2A = Serotonin Receptor 5HT2A (Homo sapiens, UniProt P28223); experiment: Serotonin Receptor 5HT2A ANT; settings: antagonist; read-out: pIC50 Serotonin Receptor 5HT2A ANT (converted)
Sequence of Serotonin Receptor 5HT2A (P28223 whole entry): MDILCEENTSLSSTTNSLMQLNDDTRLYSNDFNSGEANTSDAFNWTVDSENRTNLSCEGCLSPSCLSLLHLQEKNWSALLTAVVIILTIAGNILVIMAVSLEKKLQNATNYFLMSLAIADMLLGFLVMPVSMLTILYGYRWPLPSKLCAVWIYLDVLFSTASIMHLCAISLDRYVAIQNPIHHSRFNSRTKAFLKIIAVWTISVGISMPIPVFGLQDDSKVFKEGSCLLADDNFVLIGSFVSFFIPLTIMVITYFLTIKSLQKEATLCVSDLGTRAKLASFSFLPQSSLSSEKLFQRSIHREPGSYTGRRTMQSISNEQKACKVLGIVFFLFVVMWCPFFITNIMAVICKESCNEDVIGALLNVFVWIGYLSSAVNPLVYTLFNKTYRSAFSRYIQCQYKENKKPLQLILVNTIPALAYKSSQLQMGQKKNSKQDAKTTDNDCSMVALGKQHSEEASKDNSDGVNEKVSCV
Excerpt: as §1

Serotonin Receptor 5HT2C [4] = target: T1, Serotonin Receptor 5HT2C (Homo sapiens, UniProt P28335); experiment: Serotonin Receptor 5HT2C AG; settings: agonist; read-out: pEC50 Serotonin Receptor 5HT2C AG (converted)
T1 sequence (P28335 33-458): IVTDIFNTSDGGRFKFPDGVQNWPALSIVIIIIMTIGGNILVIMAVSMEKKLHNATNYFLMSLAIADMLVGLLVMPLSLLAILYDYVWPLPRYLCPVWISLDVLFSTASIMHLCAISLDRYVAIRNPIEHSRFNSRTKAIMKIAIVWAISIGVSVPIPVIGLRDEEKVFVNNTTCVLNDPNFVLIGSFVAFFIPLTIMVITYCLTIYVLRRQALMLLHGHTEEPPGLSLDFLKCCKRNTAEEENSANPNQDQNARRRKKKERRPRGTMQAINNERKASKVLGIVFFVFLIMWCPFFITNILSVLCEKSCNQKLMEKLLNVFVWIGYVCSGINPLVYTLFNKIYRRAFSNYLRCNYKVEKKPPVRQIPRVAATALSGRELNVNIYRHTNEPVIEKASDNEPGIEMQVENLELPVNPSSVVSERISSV
Excerpt: as §1

Serotonin Receptor 5HT2C [5] = target: T1, Serotonin Receptor 5HT2C; experiment: Serotonin Receptor 5HT2C ANT; settings: antagonist; read-out: pIC50 Serotonin Receptor 5HT2C ANT (converted)
Excerpt: as §1

Serotonin Receptor 5HT3 = target: T2, Serotonin Receptor 5HT3 (Homo sapiens, UniProt P46098); experiment: Serotonin Receptor 5HT3 ANT; settings: antagonist; read-out: pIC50 Serotonin Receptor 5HT3 ANT (converted)
T2 sequence (P46098 24-478): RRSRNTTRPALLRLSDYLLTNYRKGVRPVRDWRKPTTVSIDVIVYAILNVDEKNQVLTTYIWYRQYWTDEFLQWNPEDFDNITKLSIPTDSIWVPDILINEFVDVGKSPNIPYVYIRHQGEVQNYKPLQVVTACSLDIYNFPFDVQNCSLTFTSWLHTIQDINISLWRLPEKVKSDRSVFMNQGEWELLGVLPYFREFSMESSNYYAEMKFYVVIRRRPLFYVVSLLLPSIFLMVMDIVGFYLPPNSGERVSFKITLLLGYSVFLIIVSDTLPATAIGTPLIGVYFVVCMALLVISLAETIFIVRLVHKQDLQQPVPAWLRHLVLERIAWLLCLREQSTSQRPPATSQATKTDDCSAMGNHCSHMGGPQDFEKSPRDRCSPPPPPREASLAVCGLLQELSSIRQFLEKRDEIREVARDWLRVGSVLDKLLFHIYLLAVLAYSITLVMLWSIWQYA
Excerpt: as §1

Serotonin Transporter = Serotonin Transporter (Homo sapiens, UniProt P31645); experiment: Serotonin Transporter ANT; settings: antagonist; read-out: pIC50 Serotonin Transporter ANT (converted)
Excerpt: as §1

Sequence of Adrenergic Receptor a1B (P35368 whole entry): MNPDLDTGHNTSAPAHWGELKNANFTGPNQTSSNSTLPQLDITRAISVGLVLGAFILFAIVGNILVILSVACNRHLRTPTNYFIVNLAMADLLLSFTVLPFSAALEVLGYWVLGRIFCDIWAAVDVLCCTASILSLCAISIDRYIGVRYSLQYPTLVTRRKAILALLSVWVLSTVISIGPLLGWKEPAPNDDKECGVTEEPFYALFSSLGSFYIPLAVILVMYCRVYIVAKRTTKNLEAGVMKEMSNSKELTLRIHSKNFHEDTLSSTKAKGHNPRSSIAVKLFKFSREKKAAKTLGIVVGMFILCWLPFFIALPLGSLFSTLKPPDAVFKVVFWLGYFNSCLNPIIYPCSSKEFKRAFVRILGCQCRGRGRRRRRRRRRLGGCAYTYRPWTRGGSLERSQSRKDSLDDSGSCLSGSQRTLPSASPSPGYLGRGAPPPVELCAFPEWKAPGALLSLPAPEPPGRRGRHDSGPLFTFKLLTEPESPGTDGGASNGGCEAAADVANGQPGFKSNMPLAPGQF

SMILES | IC50 (Adrenergic Receptor a1B) [µM] | EC50 (Adrenergic Receptor b2) [µM] | IC50 (Aurora B Kinase) [µM] | IC50 (Cyclooxygenase 2) [µM] | EC50 (Dopamin Receptor D2) [µM] | EC50 [1] [µM] | IC50 [2] [µM] | EC50 (Opioid Receptor k) [µM] | EC50 (Opioid Receptor m) [µM] | IC50 [3] [µM] | IC50 (Potassium Channel KCNQ1) [µM] | EC50 (Pregnane X receptor) [µM] | pIC50 Serotonin Receptor 5H1 ANT (Serotonin Receptor 5H1) | IC50 (Serotonin Receptor 5HT2A) [µM] | EC50 (Serotonin Receptor 5HT2C [4]) [µM] | IC50 (Serotonin Receptor 5HT2C [5]) [µM] | IC50 (Serotonin Receptor 5HT3) [µM] | IC50 (Serotonin Transporter) [µM] | IC50 (Adrenergic Receptor a1B; antagonist, read-out: pIC50 Adrenergic Receptor a1B ANT (converted)) [µM] | EC50 ([1]; agonist, read-out: pEC50 Nicotinic Ach Receptor A1 AG (converted)) [µM]
COc1ncc(-c2ccc3c(Nc4cc(Oc5cc(F)cc(F)c5)cc(C(=O)O)c4)c(S(=O)(=O)NC4CC4)cnc3c2)c(OC)n1 [Compound 1] | 12.6 | 31.6 | 7.94 | 100 | 100 | 50.1 | 100 | 100 | 100 | 31.6 | 25.1 | 50.1 | 4.7 | 39.8 | 39.8 | 39.8 | 50.1 | 100 |  | 
COc1ncc(-c2ccc3c(Nc4cc(C(=O)O)cc(C5CCCC5)c4)c(S(=O)(=O)NC4CC4)cnc3c2)c(OC)n1 [Compound 2] |  | 31.6 | 31.6 | 63.1 | 100 |  | 100 | 100 | 100 | 31.6 | 25.1 | 50.1 | 4.4 | 31.6 | 39.8 | 39.8 | 12.6 | 100 | 31.6 | 50.1
